# According to paper PMC4497560 (Bioorganic & medicinal chemistry letters, 2014):
# Legend:
# Format in all cases: biochemical
# [1] = target: T1, lymphoid tyrosine phosphatase (LYP) (Homo sapiens, UniProt Q9Y2R2); experiment: LYP enzymatic activity assay, chelator fragments with and without zinc acetate; conditions: for Effect on LYP enzymatic activity alone: chelator alone, no added zinc; for Chelator concentration sufficient to restore LYP activity: two equiv; for Time dependence of LYP inhibition: incubation 0, 30, 60, 120 min
# T1 sequence (Q9Y2R2 24-289 limits assumed): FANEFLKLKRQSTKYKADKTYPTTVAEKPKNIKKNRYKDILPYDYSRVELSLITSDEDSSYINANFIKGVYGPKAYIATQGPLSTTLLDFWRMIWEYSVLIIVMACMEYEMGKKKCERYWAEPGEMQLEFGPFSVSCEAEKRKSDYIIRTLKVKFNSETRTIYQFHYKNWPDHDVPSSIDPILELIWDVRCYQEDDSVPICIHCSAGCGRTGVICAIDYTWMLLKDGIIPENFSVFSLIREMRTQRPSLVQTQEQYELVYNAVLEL
# [2] = system: PTP1B; experiment: Inhibition of PTP1B by compound 1h; conditions: Figure 6
# [3] = system: YopH
# [4] = system: CD45; experiment: Inhibition of CD45 by compound 1h; conditions: Figure 6
# [5] = in the presence of 40 μM zinc acetate
smiles,measurement,setting,value
"c1ccc(CNCc2ccccn2)nc1 [Compound 3g, di-(2-picolyl)-amine]",Effect on LYP enzymatic activity alone,[1],little effect
same,Rescue of LYP from zinc-mediated inhibition,[1]; [5],capable of rescuing the enzyme from zinc-mediated inhibition
same,Chelator concentration sufficient to restore LYP activity,[1]; [5],80 µM
"Oc1ccc2ccccc2c1O [Compound 1h, 1,2-dihydroxynaphthalene]",Selectivity for LYP over PTP1B,[2],modest selectivity
same,Time dependence of LYP inhibition,[1],time-dependent inhibitor
same,Selectivity for LYP over YopH,[3],modest selectivity
same,Selectivity for LYP over CD45,[4],modest selectivity
"O=C1C=Cc2ccccc2C1=O [1,2-naphthoquinone, reference compound]",Time dependence of LYP inhibition,[1],time-dependent manner
"CC(=O)[O-].CC(=O)[O-].[Zn+2] [zinc acetate, reference compound]",Inhibition of LYP,"[1]; 100 μM zinc(II) acetate, standard assay conditions",complete inhibition
same,"LYP activity, % of the control",[1]; at 5 μM zinc acetate,80%
same,"LYP activity, % of the control",[1]; [5],20%
"O=C1C=C(O)C(=O)c2ccccc21 [Compound 5g, 2-hydroxy-1,4-naphthoquinone]",Inhibition of LYP in the presence of zinc,"[1]; 5 μM zinc acetate, follow-up studies",consistent concentration-dependent inhibition
same,Inhibition of LYP at the initial time point,"[1]; absence of zinc, 0 min incubation",essentially no inhibition
same,Combined effect with zinc on LYP inhibition,[1]; in the presence of zinc (Figure S2),additive effect
same,Time dependence of LYP inhibition,[1],time- dependent inhibition
"Oc1ccc(Cl)c2cccnc12 [Compound 12b, 5-chloro-8-quinolol]",Effect on LYP enzymatic activity alone,[1],little effect
same,Rescue of LYP from zinc-mediated inhibition,[1]; [5],capable of rescuing the enzyme from zinc-mediated inhibition
same,Chelator concentration sufficient to restore LYP activity,[1]; [5],80 µM
"O=C(O)c1cccc(C(=O)O)n1 [Compound 8a, 2,6-pyridine dicarboxylic acid]",Effect on LYP enzymatic activity alone,[1],little effect
same,Chelator equivalents (relative to zinc) required to restore LYP activity,[1]; [5],slightly more than two equiv
same,Rescue of LYP from zinc-mediated inhibition,[1]; [5],capable of rescuing the enzyme from zinc-mediated inhibition
